Data reported in ChEMBL document CHEMBL4392867, “Asperunguisins A-F, Cytotoxic Asperane Sesterterpenoids from the Endolichenic Fungus Aspergillus unguis” (J Nat Prod, 2019).
pIC50: −log10 of the molar value. Where a name gives a salt, the structure may show the parent alone. Active and inactive are the calls of the source. The calls are words filed in the database; no cut-off is given here.

Experiments:
HT-29 [1] = assay: Cytotoxicity in human HT-29 cells assessed as reduction in cell viability at 40 uM incubated for 48 hrs by MTT assay; format: functional, cell-based
A549 [2] = assay: Cytotoxicity in human A549 cells assessed as reduction in cell viability at 40 uM incubated for 48 hrs by MTT assay; format: functional, cell-based
U-251 [3] = assay: Cytotoxicity in human U251 cells assessed as reduction in cell viability at 40 uM incubated for 48 hrs by MTT assay; format: functional, cell-based
U-87 MG [4] = assay: Cytotoxicity in human U87 cells assessed as reduction in cell viability at 40 uM incubated for 48 hrs by MTT assay; format: functional, cell-based; details: U-87MG ATCC
SMMC-7721 [5] = assay: Cytotoxicity in human SMMC7721 cells assessed as reduction in cell viability at 40 uM incubated for 48 hrs by MTT assay; format: functional, cell-based
HepG2 [6] = assay: Cytotoxicity in human HepG2 cells assessed as reduction in cell viability at 40 uM incubated for 48 hrs by MTT assay; format: functional, cell-based
U-251 [7] = assay: Cytotoxicity in human U251 cells assessed as reduction in cell viability incubated for 48 hrs by MTT assay; format: functional, cell-based; details: U-251, 48 h
U-87 MG [8] = assay: Cytotoxicity in human U87 cells assessed as reduction in cell viability incubated for 48 hrs by MTT assay; format: functional, cell-based, U-87MG ATCC
HT-29 [9] = assay: Cytotoxicity in human HT-29 cells assessed as reduction in cell viability incubated for 48 hrs by MTT assay; format: functional, cell-based; details: HT-29, 48 h
A549 [10] = assay: Cytotoxicity in human A549 cells assessed as reduction in cell viability incubated for 48 hrs by MTT assay; format: functional, cell-based; details: A549, 48 h
SMMC-7721 [11] = assay: Cytotoxicity in human SMMC7721 cells assessed as reduction in cell viability incubated for 48 hrs by MTT assay; format: functional, cell-based; details: SMMC-7721, 48 h
HepG2 [12] = assay: Cytotoxicity in human HepG2 cells assessed as reduction in cell viability incubated for 48 hrs by MTT assay; format: functional, cell-based; details: HepG2, 48 h
A549 [13] = assay: Induction of cell cycle arrest in human A549 cells assessed as accumulation at G1 phase incubated for 24 hrs by propidium iodide staining based flow cytometry; format: functional
A549 [14] = assay: Induction of cell cycle arrest in human A549 cells assessed as accumulation at G1 phase at 10 uM incubated for 24 hrs by propidium iodide staining based flow cytometry (reference value: 66.99%); format: functional
A549 [15] = assay: Induction of cell cycle arrest in human A549 cells assessed as accumulation at G2 phase at 10 uM incubated for 24 hrs by propidium iodide staining based flow cytometry (reference value: 13.54%); format: functional
A549 [16] = assay: Induction of cell cycle arrest in human A549 cells assessed as accumulation at S phase at 10 uM incubated for 24 hrs by propidium iodide staining based flow cytometry (reference value: 19.47%); format: functional
A549 [17] = assay: Induction of cell cycle arrest in human A549 cells assessed as accumulation at G1 phase at 15 uM incubated for 24 hrs by propidium iodide staining based flow cytometry (reference value: 66.99%); format: functional
A549 [18] = assay: Induction of cell cycle arrest in human A549 cells assessed as accumulation at G2 phase at 15 uM incubated for 24 hrs by propidium iodide staining based flow cytometry (reference value: 13.54%); format: functional
A549 [19] = assay: Induction of cell cycle arrest in human A549 cells assessed as accumulation at S phase at 15 uM incubated for 24 hrs by propidium iodide staining based flow cytometry (reference value: 19.47%); format: functional
A549 [20] = assay: Induction of cell cycle arrest in human A549 cells assessed as accumulation at G1 phase at 20 uM incubated for 24 hrs by propidium iodide staining based flow cytometry (reference value: 66.99%); format: functional
A549 [21] = assay: Induction of cell cycle arrest in human A549 cells assessed as accumulation at G2 phase at 20 uM incubated for 24 hrs by propidium iodide staining based flow cytometry (reference value: 13.54%); format: functional
A549 [22] = assay: Induction of cell cycle arrest in human A549 cells assessed as accumulation at S phase at 20 uM incubated for 24 hrs by propidium iodide staining based flow cytometry (reference value: 19.47%); format: functional
A549 [23] = assay: Induction of apoptosis in human A549 cells assessed as early apoptotic cells level at 10 uM incubated for 24 hrs by Annexin V-FITC and propidium iodide staining based flow cytometry (reference value: 1.81%); format: functional
A549 [24] = assay: Induction of apoptosis in human A549 cells assessed as late apoptotic cells level at 10 uM incubated for 24 hrs by Annexin V-FITC and propidium iodide staining based flow cytometry (reference value: 4.14%); format: functional
A549 [25] = assay: Induction of apoptosis in human A549 cells assessed as necrotic cells level at 10 uM incubated for 24 hrs by Annexin V-FITC and propidium iodide staining based flow cytometry (reference value: 3.23%); format: functional
A549 [26] = assay: Induction of apoptosis in human A549 cells assessed as early apoptotic cells level at 15 uM incubated for 24 hrs by Annexin V-FITC and propidium iodide staining based flow cytometry (reference value: 1.81%); format: functional
A549 [27] = assay: Induction of apoptosis in human A549 cells assessed as late apoptotic cells level at 15 uM incubated for 24 hrs by Annexin V-FITC and propidium iodide staining based flow cytometry (reference value: 4.14%); format: functional
A549 [28] = assay: Induction of apoptosis in human A549 cells assessed as necrotic cells level at 15 uM incubated for 24 hrs by Annexin V-FITC and propidium iodide staining based flow cytometry (reference value: 3.23%); format: functional
A549 [29] = assay: Induction of apoptosis in human A549 cells assessed as early apoptotic cells level at 20 uM incubated for 24 hrs by Annexin V-FITC and propidium iodide staining based flow cytometry (reference value: 1.81%); format: functional
A549 [30] = assay: Induction of apoptosis in human A549 cells assessed as late apoptotic cells level at 20 uM incubated for 24 hrs by Annexin V-FITC and propidium iodide staining based flow cytometry (reference value: 4.14%); format: functional
A549 [31] = assay: Induction of apoptosis in human A549 cells assessed as necrotic cells level at 20 uM incubated for 24 hrs by Annexin V-FITC and propidium iodide staining based flow cytometry (reference value: 3.23%); format: functional
A549 [32] = assay: Cytotoxicity in human A549 cells assessed as reduction in cell viability incubated for 48 hrs in presence of pan-caspase inhibitor Z-VAD-fmk by MTT assay; format: functional, cell-based
A549 [33] = assay: Induction of DNA damage in human A549 cells assessed as increase in expression of gamma-H2AX protein expression by Western blot analysis; format: functional, cell-based

SMILES: CC(C)[C@@H]1CC[C@]2(C)C1=CC[C@]1(C)[C@H]3CC[C@](C)(O)[C@H](O)[C@@H](O)[C@]3(C)[C@@H](O)C[C@H]12
- Activity (HT-29 [1]): inactive
- Activity (A549 [2]): inactive
- Activity (U-251 [3]): inactive
- Activity (U-87 MG [4]): inactive
- Activity (SMMC-7721 [5]): inactive
- Activity (HepG2 [6]): inactive

SMILES: COc1cccc2c1C(=O)c1c(O)c3c(c(O)c1C2=O)C[C@@](O)(C(=O)CO)C[C@@H]3O[C@H]1C[C@H](N)[C@H](O)[C@H](C)O1 [DOXORUBICIN HYDROCHLORIDE]
- pIC50 (U-251 [7]): 5.54
- pIC50 (U-87 MG [8]): 5.96

SMILES: C=C1CC[C@@H]2[C@@]3(C)CC=C4[C@H](C(C)C)CC[C@@]4(C)[C@@H]3C[C@H](O)[C@@]2(C)[C@@H]2O[C@@H](c3ccc(O)cc3)O[C@@H]12
- pIC50 (HT-29 [9]): < 4.40
- pIC50 (A549 [10]): < 4.40
- pIC50 (U-251 [7]): < 4.40
- pIC50 (U-87 MG [8]): < 4.40
- pIC50 (SMMC-7721 [11]): 4.60
- pIC50 (HepG2 [12]): < 4.40

SMILES: C=C1CC[C@@H]2[C@@]3(C)CC=C4[C@H](C(C)C)CC[C@@]4(C)[C@@H]3C[C@H](O)[C@@]2(C)[C@H](O)[C@H]1O
- pIC50 (HT-29 [9]): < 4.40
- pIC50 (A549 [10]): 4.79
- pIC50 (U-251 [7]): < 4.40
- pIC50 (U-87 MG [8]): < 4.40
- pIC50 (SMMC-7721 [11]): < 4.40
- pIC50 (HepG2 [12]): 5.09

SMILES: CC(C)[C@@H]1CC[C@]2(C)C1=CC[C@]1(C)[C@H]3CC[C@]4(C)O[C@@H]4[C@@H](O)[C@]3(C)[C@@H](O)C[C@H]12
- Activity (HT-29 [1]): inactive
- Activity (A549 [2]): inactive
- Activity (U-251 [3]): inactive
- Activity (U-87 MG [4]): inactive
- Activity (SMMC-7721 [5]): inactive
- Activity (HepG2 [6]): inactive

SMILES: CC(C)[C@@H]1CC[C@]2(C)C1=CC[C@]1(C)[C@H]3CC[C@]4(C)O[C@@H]4C(=O)[C@]3(C)[C@@H](O)C[C@H]12
- Activity (HT-29 [1]): inactive
- Activity (A549 [2]): inactive
- Activity (U-251 [3]): inactive
- Activity (U-87 MG [4]): inactive
- Activity (SMMC-7721 [5]): inactive
- Activity (HepG2 [6]): inactive

SMILES: CC(C)[C@@H]1CC[C@]2(C)C1=CC[C@]1(C)[C@H]3CC[C@@]4(C)O[C@H]([C@H]4O)[C@]3(C)[C@@H](O)C[C@H]12
- pIC50 (HT-29 [9]): 4.84
- pIC50 (A549 [10]): 5.21
- pIC50 (U-251 [7]): 4.90
- pIC50 (U-87 MG [8]): 4.79
- pIC50 (SMMC-7721 [11]): 4.82
- pIC50 (HepG2 [12]): 4.70
- Activity (A549 [13]): Dose-dependent effect
- Activity (A549 [14]): 76.4%
- Activity (A549 [15]): 7.51%
- Activity (A549 [16]): 16.1%
- Activity (A549 [17]): 83.33%
- Activity (A549 [18]): 5.06%
- Activity (A549 [19]): 11.62%
- Activity (A549 [20]): 85.86%
- Activity (A549 [21]): 3.76%
- Activity (A549 [22]): 10.38%
- Activity (A549 [23]): 2.17%
- Activity (A549 [24]): 3.93%
- Activity (A549 [25]): 3.23%
- Activity (A549 [26]): 2.43%
- Activity (A549 [27]): 6.05%
- Activity (A549 [28]): 3.79%
- Activity (A549 [29]): 16.83%
- Activity (A549 [30]): 20.57%
- Activity (A549 [31]): 3.3%
- Activity (A549 [32]): inactive
- Activity (A549 [33]): Dose-dependent effect

SMILES: CC1=C[C@@H](O)[C@@]2(C)[C@H](CC1)[C@@]1(C)CC=C3[C@H](C(C)C)CC[C@@]3(C)[C@@H]1C[C@@H]2O
- pIC50 (HT-29 [9]): 4.62
- pIC50 (A549 [10]): < 4.40
- pIC50 (U-251 [7]): < 4.40
- pIC50 (U-87 MG [8]): < 4.40
- pIC50 (SMMC-7721 [11]): < 4.40
- pIC50 (HepG2 [12]): < 4.40
